Data taken from patent US10894085B2, “System for thermotherapy treatment or prevention of antimicrobial resistant or biofilm infections” (FUNDACIÓ HOSPITAL UNIVERSITARI VALL D'HEBRON—INSTITUT DE …, priority 2016, dated 2021).
Converted amounts (≈) assume the structure as drawn. Read-outs that look alike come from different tables or passages of the source.

Legend:
Assay type in all cases: cell-based
[1] = test system: Klebsiella pneumoniae strains; assay: Antibiotic susceptibility (CLSI category) of K. pneumoniae clinical isolates; on Antibiotic susceptibility and clinical category (CLSI breakpoint): key: S, susceptible; R, resistant; I, intermediate
[2] = test system: Pseudomonas aeruginosa strains; assay: Susceptibility (MIC, CLSI category) of P. aeruginosa clinical isolates; on clinical category (CLSI breakpoint): key: S, susceptible; R, resistant; I, intermediate
P. aeruginosa = assay: MIC by broth microdilution (Table 4), P. aeruginosa
Method: (§1) The minimum inhibitory concentration (MIC) values were determined by broth microdilution method according to “Methods for Dilution Antimicrobial Susceptibility Tests for Bacteria That Grow Aerobically: Approved Standard M7-A7. CLSI, Wayne, Pa., USA, 2006” Colistin and amikacin free drugs were evaluated to compare the efficacy of nanoparticles. MIC was evaluated in Pa46, Pa1016, Kp1, Kp4, Abl4, Ab4256, MRSA 15, MRSA 16, SE14 an SE94 strains. ATCC P. aeruginosa 27853, ATCC E. coli 25922 and ATCC A. baumannii 19606 were used as quality control.

A. baumannii = assay: MIC by broth microdilution (Table 4), A. baumannii
Method: as §1

[3] = test system: Acinetobacter baumannii isogenic strains; assay: microbe, parasite or virus in culture; conditions: for MIC: Acinetobacter baumannii
K. pneumoniea = assay: MIC by broth microdilution (Table 4), K. pneumoniae
Method: as §1

S. epidermidis = assay: MIC by broth microdilution (Table 4), S. epidermidis
Method: as §1

[4] = test system: methicillin-resistant S. aureus; assay: MIC by broth microdilution (Table 4), MRSA
Method: as §1

[5] = strain Kp1 (XDR, CTX-M, OXA-48)
[6] = Pseudomonas aeruginosa, strain Pa46 (ST111, XDR, VIM-2), read-out: MIC
[7] = Pseudomonas aeruginosa, strain Pa54 (ST111, XDR, VIM-2), read-out: MIC
[8] = Pseudomonas aeruginosa, strain Pa1016 (ST175, XDR), read-out: MIC
[9] = read-out: MIC values, strain Abl4 (ST2)
[10] = read-out: MIC values, strain Abl1 (ST103)
[11] = read-out: MIC values, strain Abl4256 (ST38)

CC1(C)S[C@@H]2[C@H](NC(=O)[C@H](N)c3ccccc3)C(=O)N2[C@H]1C(=O)O [AMP, ampicillin]
Antibiotic susceptibility and clinical category (CLSI breakpoint) [1, 5]: R
Antibiotic susceptibility and clinical category (CLSI breakpoint) ([1]; strain Kp2 (XDR, CTX-M, NDM)): R
Antibiotic susceptibility and clinical category (CLSI breakpoint) ([1]; strain Kp3 (XDR, KPC)): R
Antibiotic susceptibility and clinical category (CLSI breakpoint) ([1]; strain Kp4 (XDR, AmpC)): R

C[C@H]1[C@H](NC(=O)/C(=N\OC(C)(C)C(=O)O)c2csc(N)n2)C(=O)N1S(=O)(=O)O [ATM, aztreonam]
MIC [2, 6]: 16 µg/mL (≈ 36.7 µM)
MIC [2, 7]: 32 µg/mL (≈ 73.5 µM)
MIC [2, 8]: 32 µg/mL (≈ 73.5 µM)

NCC[C@H](O)C(=O)N[C@@H]1C[C@H](N)[C@@H](O[C@H]2O[C@H](CN)[C@@H](O)[C@H](O)[C@H]2O)[C@H](O)[C@H]1O[C@H]1O[C@H](CO)[C@@H](O)[C@H](N)[C@H]1O [Amikacin, amikacin]
MIC [2, 6]: 16 µg/mL (≈ 27.3 µM)
MIC [2, 7]: 16 µg/mL (≈ 27.3 µM)
MIC [2, 8]: 2 µg/mL (≈ 3.42 µM)
clinical category (CLSI breakpoint) ([2]; strain Pa46): S
susceptibility ([2]; strain Pa46): susceptible
clinical category (CLSI breakpoint) ([2]; strain Pa54): S
susceptibility ([2]; strain Pa54): susceptible
clinical category (CLSI breakpoint) ([2]; strain Pa1016): S
susceptibility ([2]; strain Pa1016): susceptible
MIC (P. aeruginosa; Pseudomonas aeruginosa, strain Pa46, read-out: MIC): 8 µg/mL (≈ 13.7 µM)
MIC (P. aeruginosa; Pseudomonas aeruginosa, strain Pa1016, read-out: MIC): 0.5 µg/mL (≈ 0.854 µM)
MIC (A. baumannii; Acinetobacter baumannii, strain Ab4256, read-out: MIC): 8 µg/mL (≈ 13.7 µM)
MIC (A. baumannii; Acinetobacter baumannii, strain Abl4, read-out: MIC): 1 µg/mL (≈ 1.71 µM)
MIC [3, 9]: ≤ 2 µg/mL
susceptibility ([3]; strain Abl4 (ST2)): susceptible
MIC (K. pneumoniea; Klebsiella pneumoniae, strain Kp1, read-out: MIC): 2 µg/mL (≈ 3.42 µM)
MIC (K. pneumoniea; Klebsiella pneumoniae, strain Kp4, read-out: MIC): 1 to 2 µg/mL (≈ 1.71 to 3.42 µM)
susceptibility ([1]; strain Kp1): susceptible
Antibiotic susceptibility and clinical category (CLSI breakpoint) [1, 5]: S
Antibiotic susceptibility and clinical category (CLSI breakpoint) ([1]; strain Kp2 (XDR, CTX-M, NDM)): R
Antibiotic susceptibility and clinical category (CLSI breakpoint) ([1]; strain Kp3 (XDR, KPC)): R
susceptibility ([1]; strain Kp4): susceptible
Antibiotic susceptibility and clinical category (CLSI breakpoint) ([1]; strain Kp4 (XDR, AmpC)): S
MIC (S. epidermidis; Staphylococcus epidermidis, strain SE14, read-out: MIC): 1 to 2 µg/mL (≈ 1.71 to 3.42 µM)
MIC (S. epidermidis; Staphylococcus epidermidis, strain SE94, read-out: MIC): 1 µg/mL (≈ 1.71 µM)
MIC ([4]; Staphylococcus aureus, strain MRSA15, read-out: MIC): 8 to 16 µg/mL (≈ 13.7 to 27.3 µM)
MIC ([4]; strain MRSA16): 8 to 16 µg/mL

CC(C)(O/N=C(\C(=O)N[C@@H]1C(=O)N2C(C(=O)[O-])=C(C[n+]3ccccc3)CS[C@H]12)c1csc(N)n1)C(=O)O [CAZ, ceftazidime]
MIC [3, 10]: ≥ 64 µg/mL
MIC [3, 9]: ≥ 64 µg/mL
MIC [3, 11]: < 8 µg/mL
Antibiotic susceptibility and clinical category (CLSI breakpoint) [1, 5]: R
Antibiotic susceptibility and clinical category (CLSI breakpoint) ([1]; strain Kp2 (XDR, CTX-M, NDM)): R
Antibiotic susceptibility and clinical category (CLSI breakpoint) ([1]; strain Kp3 (XDR, KPC)): R
Antibiotic susceptibility and clinical category (CLSI breakpoint) ([1]; strain Kp4 (XDR, AmpC)): R

CO/N=C(\C(=O)N[C@@H]1C(=O)N2C(C(=O)[O-])=C(C[N+]3(C)CCCC3)CS[C@H]12)c1csc(N)n1 [FEP, cefepime]
MIC [3, 10]: ≥ 64 µg/mL
MIC [3, 9]: ≥ 64 µg/mL
MIC [3, 11]: 16 µg/mL (≈ 33.3 µM)
Antibiotic susceptibility and clinical category (CLSI breakpoint) [1, 5]: R
Antibiotic susceptibility and clinical category (CLSI breakpoint) ([1]; strain Kp2 (XDR, CTX-M, NDM)): R
Antibiotic susceptibility and clinical category (CLSI breakpoint) ([1]; strain Kp3 (XDR, KPC)): R
Antibiotic susceptibility and clinical category (CLSI breakpoint) ([1]; strain Kp4 (XDR, AmpC)): R

C[C@@H]1O[C@@H]1P(=O)(O)O [FOS, fosfomycin]
susceptibility ([1]; strain Kp1): susceptible
Antibiotic susceptibility and clinical category (CLSI breakpoint) [1, 5]: S
susceptibility ([1]; strain Kp2): susceptible
Antibiotic susceptibility and clinical category (CLSI breakpoint) ([1]; strain Kp2 (XDR, CTX-M, NDM)): S
Antibiotic susceptibility and clinical category (CLSI breakpoint) ([1]; strain Kp3 (XDR, KPC)): R
Antibiotic susceptibility and clinical category (CLSI breakpoint) ([1]; strain Kp4 (XDR, AmpC)): R

C[C@@H](O)[C@H]1C(=O)N2C(C(=O)O)=C(SCCN=CN)C[C@H]12 [IMP, imipenem]
MIC [2, 6]: 256 µg/mL (≈ 855 µM)
MIC [2, 7]: 256 µg/mL (≈ 855 µM)
MIC [2, 8]: 16 µg/mL (≈ 53.4 µM)
MIC [3, 10]: ≥ 16 µg/mL
MIC [3, 9]: ≥ 16 µg/mL
MIC [3, 11]: 64 µg/mL (≈ 214 µM)
Antibiotic susceptibility and clinical category (CLSI breakpoint) [1, 5]: R
Antibiotic susceptibility and clinical category (CLSI breakpoint) ([1]; strain Kp2 (XDR, CTX-M, NDM)): R
Antibiotic susceptibility and clinical category (CLSI breakpoint) ([1]; strain Kp3 (XDR, KPC)): R
Antibiotic susceptibility and clinical category (CLSI breakpoint) ([1]; strain Kp4 (XDR, AmpC)): R

C[C@H]1COc2c(N3CCN(C)CC3)c(F)cc3c(=O)c(C(=O)O)cn1c23 [LVX, levofloxacin]
MIC [2, 6]: 32 µg/mL (≈ 88.6 µM)
MIC [2, 7]: 32 µg/mL (≈ 88.6 µM)
MIC [2, 8]: 128 µg/mL (≈ 354 µM)
clinical category (CLSI breakpoint) ([2]; strain Pa46): R
clinical category (CLSI breakpoint) ([2]; strain Pa54): R
clinical category (CLSI breakpoint) ([2]; strain Pa1016): R
MIC [3, 10]: 4 µg/mL (≈ 11.1 µM)
MIC [3, 9]: 4 µg/mL (≈ 11.1 µM)
MIC [3, 11]: ≤ 1 µg/mL

C[C@@H](O)[C@H]1C(=O)N2C(C(=O)O)=C(S[C@@H]3CN[C@H](C(=O)N(C)C)C3)[C@H](C)[C@H]12 [MEM, meropenem]
MIC [3, 10]: ≥ 16 µg/mL
MIC [3, 9]: ≥ 16 µg/mL
MIC [3, 11]: > 16 µg/mL
Antibiotic susceptibility and clinical category (CLSI breakpoint) [1, 5]: R
Antibiotic susceptibility and clinical category (CLSI breakpoint) ([1]; strain Kp2 (XDR, CTX-M, NDM)): R
Antibiotic susceptibility and clinical category (CLSI breakpoint) ([1]; strain Kp3 (XDR, KPC)): R
Antibiotic susceptibility and clinical category (CLSI breakpoint) ([1]; strain Kp4 (XDR, AmpC)): R

CCN1CCN(C(=O)N[C@@H](C(=O)N[C@@H]2C(=O)N3[C@@H]2SC(C)(C)[C@@H]3C(=O)O)c2ccccc2)C(=O)C1=O [PIP]
MIC values ([3]; strain Abl1 (ST103)): >=128 mg/L
MIC values ([3]; strain Abl4 (ST2)): >=128 mg/L
MIC values ([3]; strain Abl4256 (ST38)): >64 µg/mL

CN(C)c1cc(NC(=O)CNC(C)(C)C)c(O)c2c1C[C@H]1C[C@H]3[C@H](N(C)C)C(O)=C(C(N)=O)C(=O)[C@@]3(O)C(O)=C1C2=O [TIG, tigecycline]
MIC [3, 10]: 2 µg/mL (≈ 3.41 µM)
MIC [3, 9]: 4 µg/mL (≈ 6.83 µM)
MIC [3, 11]: 0.5 µg/mL (≈ 0.854 µM)
susceptibility ([3]; strain AbII (ST103)): susceptible
susceptibility ([3]; strain Abl4 (ST2)): susceptible

NC[C@H]1O[C@H](O[C@H]2[C@H](O)[C@@H](O[C@H]3O[C@H](CO)[C@@H](O)[C@H](N)[C@H]3O)[C@H](N)C[C@@H]2N)[C@H](N)C[C@@H]1O [TOB, tobramycin]
MIC [2, 6]: 64 µg/mL (≈ 137 µM)
MIC [2, 7]: 128 µg/mL (≈ 274 µM)
MIC [2, 8]: 16 µg/mL (≈ 34.2 µM)
clinical category (CLSI breakpoint) ([2]; strain Pa46): R
clinical category (CLSI breakpoint) ([2]; strain Pa54): R
clinical category (CLSI breakpoint) ([2]; strain Pa1016): R

colistin
clinical category (CLSI breakpoint) ([2]; strain Pa46): S
susceptibility ([2]; strain Pa46): susceptible
MIC ([2]; strain Pa46 (ST111, XDR, VIM-2)): 0.5 µg/mL
clinical category (CLSI breakpoint) ([2]; strain Pa54): S
susceptibility ([2]; strain Pa54): susceptible
MIC ([2]; strain Pa54 (ST111, XDR, VIM-2)): 0.5 µg/mL
clinical category (CLSI breakpoint) ([2]; strain Pa1016): S
susceptibility ([2]; strain Pa1016): susceptible
MIC ([2]; strain Pa1016 (ST175, XDR)): 1 µg/mL
MIC (P. aeruginosa; strain Pa46): 0.5 to 1 µg/mL
MIC (P. aeruginosa; strain Pa1016): 0.5 to 1 µg/mL
MIC (A. baumannii; strain Ab4256): 0.25 µg/mL
MIC (A. baumannii; strain Abl4): 1 µg/mL
susceptibility ([3]; strain AbII (ST103)): susceptible
MIC values ([3]; strain Abl1 (ST103)): <=0.5 mg/L
MIC values ([3]; strain Abl4 (ST2)): <=0.5 mg/L
susceptibility ([3]; strain Abl4 (ST2)): susceptible
MIC values ([3]; strain Abl4256 (ST38)): 0.25 µg/mL
MIC (K. pneumoniea; strain Kp1): 1 µg/mL
MIC (K. pneumoniea; strain Kp4): 0.125 to 0.25 µg/mL
susceptibility ([1]; strain Kp1): susceptible
Antibiotic susceptibility and clinical category (CLSI breakpoint) [1, 5]: S
susceptibility ([1]; strain Kp2): susceptible
Antibiotic susceptibility and clinical category (CLSI breakpoint) ([1]; strain Kp2 (XDR, CTX-M, NDM)): S
susceptibility ([1]; strain Kp3): susceptible
Antibiotic susceptibility and clinical category (CLSI breakpoint) ([1]; strain Kp3 (XDR, KPC)): S
susceptibility ([1]; strain Kp4): susceptible
Antibiotic susceptibility and clinical category (CLSI breakpoint) ([1]; strain Kp4 (XDR, AmpC)): S
MIC (S. epidermidis; strain SE14): 32 to 64 µg/mL
MIC (S. epidermidis; strain SE94): 32 µg/mL
MIC ([4]; strain MRSA15): >128 µg/mL

gentamicin
MIC values ([3]; strain Abl1 (ST103)): >=16 mg/L
MIC values ([3]; strain Abl4 (ST2)): 4 µg/mL
MIC values ([3]; strain Abl4256 (ST38)): >8 µg/mL
Antibiotic susceptibility and clinical category (CLSI breakpoint) [1, 5]: R
Antibiotic susceptibility and clinical category (CLSI breakpoint) ([1]; strain Kp2 (XDR, CTX-M, NDM)): R
susceptibility ([1]; strain Kp3): susceptible
Antibiotic susceptibility and clinical category (CLSI breakpoint) ([1]; strain Kp3 (XDR, KPC)): S
Antibiotic susceptibility and clinical category (CLSI breakpoint) ([1]; strain Kp4 (XDR, AmpC)): R
